Assay results: patent publication US12390458B2, “Therapeutic combination of quinoline derivative and antibody” (CHIA TAI TIANQING PHARMACEUTICAL GROUP CO., LTD., priority 2018, dated 2025)
Counter-ions that a name gives are not always drawn.

Legend:
[1] = Body weight and tolerance of H22 tumor-bearing mice; assay type: in vivo
Method: The use and welfare of the laboratory animals were carried out in compliance with the provisions of Association for Assessment and Accreditation of Laboratory Animal Care, International (AAALAC). The health and death of the animals are monitored daily and routine examinations include observation of the effects of the test substance or drug on the daily performance of the animals, such as behavioral activities, weight changes, appearance, etc.
(§1) H22 cells were inoculated to each mouse subcutaneously, and when the tumor grew to 100-200 mm^3, the mice were randomly grouped and intragastrically (i.g.) administered or intraperitoneal (IP) injected with drug; the mice in the solvent group were intragastrically administrated with distilled water with the same volume; the administration volume was 0.1 mL/10 g body weight; specific administration dosages and regimes are shown in Table 4.

[2] = system: mouse liver cancer H22 subcutaneous xenograft tumor; assay: Efficacy on mouse liver cancer H22 subcutaneous xenograft tumor; assay type: in vivo; settings: for Mean tumor volume (mm^3) D0: D0, day of first administration (baseline), KM mice, 10 per group; for % T/C D17 / Tumor growth inhibition (%): anlotinib hydrochloride 1 mg/kg i.g. QD×17, lenvatinib mesylate 5 mg/kg i.g. QD×17, mPD-1 1 mg/kg IP 5 times; for % T/C D17 / Tumor growth inhibition (%) / Mean tumor volume (mm^3) D17: D17; for Mean tumor volume (mm^3) D17: anlotinib hydrochloride 1 mg/kg i.g. QD×17, lenvatinib mesylate 5 mg/kg i.g. QD×17, mPD-1 1 mg/kg IP D0, D3, D7, D10, D14; for Complete regression / Partial regression: number of animals out of 10 per group
Method: The H22 cells were cultured in a 10-cm petri dish with RPMI 1640 medium containing 10% fetal bovine serum, penicillin and streptomycin in an incubator at 37° C. and 5% CO2. Subculturing was carried out twice a week and cells were collected, counted and inoculated when the cells grew exponentially.
KM mice, 6-7 weeks old, female, purchased from Shanghai JSJ Laboratory Animal Co. Ltd. Production license No.: SCXK (Shanghai) 2013-0006; animal certification No.: 311620400013790. Breeding environment: SPF grade.
The experimental index is to study the influence of the drug on the tumor growth, and the specific index is T/C (%) or tumor growth inhibition TGI (%).
Tumor diameters were measured twice weekly with a vernier caliper and tumor volume (V) was calculated according to the following formula: V=½×a×b^2, where a and b represent length and width, respectively.
T/C (%)=(T−T0)/(C−C0)×100, where T and C are the tumor volumes of animals at the end of the experiment in the test group and control group, respectively; T0 and C0 are the tumor volumes of animals at the beginning of the experiment in the test group and control group, respectively. Tumor growth inhibition (TGI)(%)=100−T/C(%). Tumor growth inhibition (TGI)(%)=100−(T−T0)/T0×100 when tumor started to regress.
If the volume of tumor shrinks compared with its initial volume, i.e., T<T0 […], it is defined as partial regression (PR) of tumor; if the tumor completely disappears, it is defined as complete regression (CR) of tumor.
as §1
After the experiment was completed, or when the tumor volume of the animals reached the euthanization endpoint of 1500 mm^3, the animals were put to death through carbon dioxide inhalation, followed by dissecting to take the tumor tissue and weighing and photographing.

[3] = Open, multicenter phase Ib/II clinical study, first-line 14C12H1L1 plus anlotinib hydrochloride: adverse events; assay type: in vivo, human; settings: patients on combined 14C12H1L1 + anlotinib, events related to the labelled treatment; for TRAE (incidence of treatment-related adverse events) / ≥ grade 3 TRAEs: by Jun. 27, 2019
From the text: This example discloses the results of an early open, multicenter phase Ib/II clinical study on first-line treatment of unresectable hepatocellular carcinoma with combined use of 14C12H1L1 and anlotinib hydrochloride.
This study is an open, multicenter phase Ib/II clinical study aimed at evaluating the effectiveness, i.e. safety, of 14C12H1L1 in combination with anlotinib in the first line treatment of unresectable hepatocellular carcinoma.
Secondary endpoints: (1) disease control rate (DCR), duration of response (DOR), time to response (TTR), progression-free survival (PFS), and treatment past progression (TPP) being evaluated by investigators according to RECISIT v1.1; (2) overall survival (OS); (3) safety evaluation: incidence and severity of AEs, clinically significant abnormal laboratory test results.
14C12H1L1 injection, 100 mg/10 mL solution; manufacturer: Akeso Tiancheng Guangdong Co., Ltd.; stored at 2-8° C. in the absence of light.
Anlotinib hydrochloride capsules (FOCUS V®), 8 mg/capsule; manufacturer: Chia Tai Tianging Pharmaceutical Group Co., Ltd.; sealed and be away from light.
14C12H1L1 in combination with anlotinib, wherein the 14C12H1L1: 200 mg, Q3W intravenous injection; anlotinib: taken once a day, 8 mg each time, 14 days of treatment plus 7 days of interruption, i.e., a treatment cycle of 21 days.

[4] = system: advanced NSCLC; settings: phase III; Chinese patients; cited from earlier work
[5] = phase II trial; cited from earlier work

Compound	body weight / tolerance of tumor-bearing mice ([1]; mouse, in vivo)	Mean tumor volume (mm^3) D0 [2] [mm^3]	tumor growth / efficacy in words ([2]; D0-D17, same doses, comparison between groups)	% T/C D17 [2] [%]	Tumor growth inhibition (%) [2] [%]	Mean tumor volume (mm^3) D17 [2] [mm^3]	Complete regression ([2]; same doses)	Partial regression ([2]; same doses)	TRAE (incidence of treatment-related adverse events) [3] [%]	≥ grade 3 TRAEs [3] [%]	SAE [3] [%]	TRAEs resulting in the withdrawal [3] [%]	overall survival and progression-free survival [4]	tolerability [4]	overall survival [5]	progression-free survival [5]	body weight / tolerance of tumor-bearing mice ([1]; D0-D17, anlotinib hydrochloride 1 mg/kg, lenvatinib mesylate 5 mg/kg, mPD-1 1 mg/kg)
COc1cc2nccc(Oc3ccc(NC(=O)NC4CC4)c(Cl)c3)c2cc1C(N)=O [Lenvatinib mesylate]	no symptom like obvious weight loss	127.6	obviously inhibits the growth	21.0	79	590.8	0	0									
14C12H1L1: anti-PD-1 monoclonal antibody (Akeso Bioscience); CN106977602A; CDRs SEQ ID NO: 25-30									62.5	6.25	6.25	6.25					
COc1cc2c(Oc3ccc4[nH]c(C)cc4c3F)ccnc2cc1OCC1(N)CC1 [Anlotinib, 1-[[[4-(4-fluoro-2-methyl-1H-indol-5-yl)oxy-6-methoxyquinolin-7-yl]oxy]methyl]cyclopropylamine]									75	12.5	12.5	12.5	extended overall survival and progression-free survival	well tolerated	potential benefit for overall survival	improve progression-free survival	
COc1cc2c(Oc3ccc4[nH]c(C)cc4c3F)ccnc2cc1OCC1(N)CC1 [Anlotinib hydrochloride, 1-[[[4-(4-fluoro-2-methyl-1H-indol-5-yl)oxy-6-methoxyquinolin-7-yl]oxy]methyl]cyclopropylamine hydrochloride]		131.4		38.3	61.7	975.3	0	0									no symptom like obvious weight loss
